{"source": "patent US20110028490A1", "about": "“4-PHENYL-PIPERAZIN-1-YL-ALKYL-BENZOIMIDAZOL-2-ONE DERIVATIVES AND THEIR USE AS MONOAMINE NEUROT[…]-UPTAKE IN-HIBITORS” (N[…]/S, priority 2008, published 2011)", "assay_type_in_all_cases": "biochemical", "key": {"[1]": {"test_system": "serotonine (5-HT) reuptake in synaptosomes", "test": "Inhibition of 5-HT reuptake in synaptosomes", "details": "3H-5-HT, read-out: 5-HT-uptake IC50", "description": "(§1) Compounds were tested for their ability to inhibit the reuptake of the monoamine neurotransmitters dopamine (DA) noradrenaline (NA) and serotonine (5-HT) in synaptosomes as described in WO 97/16451 (NeuroSearch A/S).\n(§2) The test values are given as IC50 (the concentration (μM) of the test substance which inhibits the specific binding of ^3H-DA, ^3H-NA, or ^3H-5-HT by 50%)."}, "[2]": {"test_system": "dopamine (DA) reuptake in synaptosomes", "test": "Inhibition of DA reuptake in synaptosomes", "details": "3H-DA, read-out: DA-uptake IC50", "description": "as §1, §2"}, "[3]": {"test_system": "noradrenaline (NA) reuptake in synaptosomes", "test": "Inhibition of NA reuptake in synaptosomes", "details": "3H-NA, read-out: NA-uptake IC50", "description": "as §1, §2"}}, "note": "Structures can show the parent of a compound that is named as a salt."}
{"smiles": "C=C(C)n1c(=O)n(CCN2CCN(c3ccc(Cl)c(Cl)c3)CC2)c2ccccc21", "note": "[Compound A1, 1-{2-[4-(3,4-Dichloro-phenyl)-piperazin-1-yl]-ethyl}-3-isopropenyl-1,3-dihydro-benzoimidazol-2-one fumaric acid salt]", "values": [{"measurement": "IC50", "setting": "[1]", "value": 1, "unit": "nM"}, {"measurement": "IC50", "setting": "[2]", "value": 1100, "unit": "nM"}, {"measurement": "IC50", "setting": "[3]", "value": 1070, "unit": "nM"}]}
{"smiles": "O=c1n(CCN2CCN(c3ccc(Cl)cc3)CC2)c2ccccc2n1C1=CCCCC1", "note": "[Compound A3, 1-{2-[4-(4-Chloro-phenyl)-piperazin-1-yl]-ethyl}-3-cyclohex-1-enyl-1,3-dihydro-benzoimidazol-2-one fumaric acid salt]", "values": [{"measurement": "IC50", "setting": "[1]", "value": 22, "unit": "nM"}, {"measurement": "IC50", "setting": "[2]", "value": 430, "unit": "nM"}, {"measurement": "IC50", "setting": "[3]", "value": "> 1000", "unit": "nM"}]}
